Data as given in patent publication US5668152A, “Protein kinase C inhibitors” (priority 1995, dated 1997).
Entries after “also recorded” stand apart in the source; their conditions may differ. Read-outs that look alike come from different tables or passages of the source.

What was measured:
protein kinase C gamma = protein kinase C gamma (Homo sapiens, UniProt P05129); test: PKC Enzyme assay, gamma isozyme; type: biochemical
Description: (§1) PKC enzymes=alpha, beta I, beta II, gamma, delta, epsilon, eta and zeta.
(§2) Assay components in a total volume of 250 μL are the following:
(§3) Vesicles consisting of 120 μg/mL phosphatidylserine (Avanti Polar Lipids) and sufficient diacylglycerol (Avanti Polar Lipids) to activate the enzyme to maximum activity in 20 mM HEPES buffer (Sigma, St. Louis, Mo.), pH 7.5, 940 μM calcium chloride (Sigma, St. Louis, Mo.) for assaying the alpha, beta I, beta II and gamma enzyme only, 1 mM EGTA for all the enzymes, 10 mM magnesium chloride (Sigma, St. Louis, Mo.) and 30 μM (gamma-32P) ATP (DuPont). For all the enzymes either histone type HL (Worthington) or myelin basic protein is used as substrate. The assay is started by addition of protein kinase C enzyme incubated at 30° C. for 10 minutes and stopped by adding 0.5 mL of cold trichloroacetic acid (Amresco) followed by 100 μL of 1 mg/mL bovine serum albumin (Sigma, St. Louis, Mo.). The precipitate is collected by vacuum filtration on glass fiber filters employing a TOMTEC™ filtration system and quantified by counting in a beta scintillation counter.

protein kinase C epsilon = molecular target: T1, protein kinase C epsilon (Homo sapiens, UniProt Q02156); test: PKC Enzyme assay, epsilon isozyme; type: biochemical
T1 sequence (Q02156 1-737): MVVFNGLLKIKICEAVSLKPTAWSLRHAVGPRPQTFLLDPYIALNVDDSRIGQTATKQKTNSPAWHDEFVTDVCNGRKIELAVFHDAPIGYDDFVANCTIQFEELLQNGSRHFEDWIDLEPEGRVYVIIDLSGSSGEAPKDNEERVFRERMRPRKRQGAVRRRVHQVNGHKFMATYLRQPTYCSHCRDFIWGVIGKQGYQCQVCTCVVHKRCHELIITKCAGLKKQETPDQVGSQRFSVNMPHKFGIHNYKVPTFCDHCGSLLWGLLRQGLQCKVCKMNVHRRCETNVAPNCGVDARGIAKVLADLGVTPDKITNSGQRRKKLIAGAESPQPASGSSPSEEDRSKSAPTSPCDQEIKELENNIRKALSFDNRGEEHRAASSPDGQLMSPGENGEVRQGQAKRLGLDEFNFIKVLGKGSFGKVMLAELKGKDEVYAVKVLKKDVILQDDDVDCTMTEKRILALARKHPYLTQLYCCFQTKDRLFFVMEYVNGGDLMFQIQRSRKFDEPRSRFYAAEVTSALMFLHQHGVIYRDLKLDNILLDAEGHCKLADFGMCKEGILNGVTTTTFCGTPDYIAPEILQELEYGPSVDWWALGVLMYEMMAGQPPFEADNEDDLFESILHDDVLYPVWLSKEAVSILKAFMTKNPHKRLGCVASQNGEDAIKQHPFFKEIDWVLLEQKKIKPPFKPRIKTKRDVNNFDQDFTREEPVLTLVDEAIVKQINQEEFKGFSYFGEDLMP
Description: as §1, §2, §3

protein kinase C beta-2 = protein kinase C beta-2 (Homo sapiens, UniProt P05771); test: PKC Enzyme assay, beta II isozyme; type: biochemical; conditions: PKC beta-2; 30 μM ATP, 30° C., 10 minutes; read-out: IC50 β2
Sequence of protein kinase C beta-2 (P05771 1-673 isoform P05771-2): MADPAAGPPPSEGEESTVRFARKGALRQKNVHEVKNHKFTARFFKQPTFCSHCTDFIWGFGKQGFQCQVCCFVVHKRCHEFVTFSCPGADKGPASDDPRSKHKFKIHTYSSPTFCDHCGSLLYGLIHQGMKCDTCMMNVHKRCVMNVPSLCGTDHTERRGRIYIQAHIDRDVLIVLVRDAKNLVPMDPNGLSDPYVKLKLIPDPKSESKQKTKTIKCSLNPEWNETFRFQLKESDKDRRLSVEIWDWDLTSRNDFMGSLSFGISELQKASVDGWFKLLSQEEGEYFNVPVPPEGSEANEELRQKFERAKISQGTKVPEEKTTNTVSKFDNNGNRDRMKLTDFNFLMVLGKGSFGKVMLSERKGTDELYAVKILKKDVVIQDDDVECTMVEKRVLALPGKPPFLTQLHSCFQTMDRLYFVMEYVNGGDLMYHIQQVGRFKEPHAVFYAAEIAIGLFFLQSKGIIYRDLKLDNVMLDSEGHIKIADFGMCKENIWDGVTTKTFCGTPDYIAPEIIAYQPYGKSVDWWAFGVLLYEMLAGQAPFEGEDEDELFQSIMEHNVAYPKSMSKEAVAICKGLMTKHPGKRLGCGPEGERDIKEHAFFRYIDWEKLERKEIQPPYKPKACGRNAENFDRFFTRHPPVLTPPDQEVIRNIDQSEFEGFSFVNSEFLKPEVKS
Description: as §1, §2, §3

protein kinase C eta = protein kinase C eta (Homo sapiens, UniProt P24723); test: PKC Enzyme assay, eta isozyme; type: biochemical; conditions: PKC eta; 30 μM ATP, 30° C., 10 minutes; read-out: IC50 η
Sequence of protein kinase C eta (P24723 whole entry): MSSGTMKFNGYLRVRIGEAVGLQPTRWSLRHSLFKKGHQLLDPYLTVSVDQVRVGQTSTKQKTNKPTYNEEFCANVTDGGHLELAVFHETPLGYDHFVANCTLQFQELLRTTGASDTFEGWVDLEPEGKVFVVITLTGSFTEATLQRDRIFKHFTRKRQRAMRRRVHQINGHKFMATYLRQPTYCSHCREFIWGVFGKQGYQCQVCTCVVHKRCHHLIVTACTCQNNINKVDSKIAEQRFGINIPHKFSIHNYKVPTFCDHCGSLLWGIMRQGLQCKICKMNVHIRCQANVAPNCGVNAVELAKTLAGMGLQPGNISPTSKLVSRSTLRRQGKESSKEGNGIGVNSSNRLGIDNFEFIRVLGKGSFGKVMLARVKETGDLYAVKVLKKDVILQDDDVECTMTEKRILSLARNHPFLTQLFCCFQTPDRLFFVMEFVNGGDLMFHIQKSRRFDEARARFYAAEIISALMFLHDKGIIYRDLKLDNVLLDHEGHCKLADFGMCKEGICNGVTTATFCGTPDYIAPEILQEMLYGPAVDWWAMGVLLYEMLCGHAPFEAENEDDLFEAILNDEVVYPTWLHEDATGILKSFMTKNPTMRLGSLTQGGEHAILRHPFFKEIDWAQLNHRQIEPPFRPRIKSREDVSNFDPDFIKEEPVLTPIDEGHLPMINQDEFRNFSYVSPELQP
Description: as §1, §2, §3

protein kinase C delta = protein kinase C delta (Homo sapiens, UniProt Q05655); test: biochemical
Sequence of protein kinase C delta (Q05655 whole entry): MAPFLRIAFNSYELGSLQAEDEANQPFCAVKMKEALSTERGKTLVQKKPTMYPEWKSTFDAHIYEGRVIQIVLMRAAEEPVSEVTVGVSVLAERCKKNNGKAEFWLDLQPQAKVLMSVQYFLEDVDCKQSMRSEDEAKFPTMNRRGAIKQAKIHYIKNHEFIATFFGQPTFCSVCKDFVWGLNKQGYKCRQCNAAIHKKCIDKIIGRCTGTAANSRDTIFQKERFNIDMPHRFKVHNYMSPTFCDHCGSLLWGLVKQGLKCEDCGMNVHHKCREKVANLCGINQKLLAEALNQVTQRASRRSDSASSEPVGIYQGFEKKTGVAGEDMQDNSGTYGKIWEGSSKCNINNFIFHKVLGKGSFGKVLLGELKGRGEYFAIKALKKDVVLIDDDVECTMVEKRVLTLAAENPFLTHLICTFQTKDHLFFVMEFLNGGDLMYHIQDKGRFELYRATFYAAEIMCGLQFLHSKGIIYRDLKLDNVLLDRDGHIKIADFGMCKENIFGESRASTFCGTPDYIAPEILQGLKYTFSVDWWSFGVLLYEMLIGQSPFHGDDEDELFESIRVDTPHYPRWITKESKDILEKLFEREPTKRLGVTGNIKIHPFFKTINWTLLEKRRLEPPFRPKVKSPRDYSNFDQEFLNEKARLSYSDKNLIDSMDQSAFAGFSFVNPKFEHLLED
Description: as §1, §2, §3

protein kinase C beta-1 = protein kinase C beta-1 (Homo sapiens, UniProt P05771); test: PKC Enzyme assay, beta I isozyme; type: biochemical
Sequence of protein kinase C beta-1 (P05771 whole entry): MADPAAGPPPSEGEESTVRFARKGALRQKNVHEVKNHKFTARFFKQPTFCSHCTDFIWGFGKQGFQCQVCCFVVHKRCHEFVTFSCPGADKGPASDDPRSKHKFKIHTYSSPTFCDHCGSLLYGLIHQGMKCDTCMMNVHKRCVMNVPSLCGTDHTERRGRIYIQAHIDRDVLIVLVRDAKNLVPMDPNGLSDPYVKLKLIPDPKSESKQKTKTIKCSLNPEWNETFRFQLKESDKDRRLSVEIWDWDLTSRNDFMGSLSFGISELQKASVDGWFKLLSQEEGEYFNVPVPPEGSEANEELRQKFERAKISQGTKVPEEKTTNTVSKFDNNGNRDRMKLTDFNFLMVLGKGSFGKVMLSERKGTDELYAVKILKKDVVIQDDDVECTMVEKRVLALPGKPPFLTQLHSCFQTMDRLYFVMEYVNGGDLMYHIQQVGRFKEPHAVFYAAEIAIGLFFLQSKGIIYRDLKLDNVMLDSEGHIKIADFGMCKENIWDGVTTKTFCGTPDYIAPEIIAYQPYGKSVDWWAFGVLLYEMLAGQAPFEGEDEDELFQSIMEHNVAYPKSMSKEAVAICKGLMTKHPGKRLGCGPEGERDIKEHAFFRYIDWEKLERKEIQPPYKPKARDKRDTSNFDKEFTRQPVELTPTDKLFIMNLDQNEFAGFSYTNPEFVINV
Description: as §1, §2, §3

protein kinase C zeta = molecular target: T2, protein kinase C zeta (Homo sapiens, UniProt Q05513); test: PKC Enzyme assay, zeta isozyme; type: biochemical
T2 sequence (Q05513 1-592): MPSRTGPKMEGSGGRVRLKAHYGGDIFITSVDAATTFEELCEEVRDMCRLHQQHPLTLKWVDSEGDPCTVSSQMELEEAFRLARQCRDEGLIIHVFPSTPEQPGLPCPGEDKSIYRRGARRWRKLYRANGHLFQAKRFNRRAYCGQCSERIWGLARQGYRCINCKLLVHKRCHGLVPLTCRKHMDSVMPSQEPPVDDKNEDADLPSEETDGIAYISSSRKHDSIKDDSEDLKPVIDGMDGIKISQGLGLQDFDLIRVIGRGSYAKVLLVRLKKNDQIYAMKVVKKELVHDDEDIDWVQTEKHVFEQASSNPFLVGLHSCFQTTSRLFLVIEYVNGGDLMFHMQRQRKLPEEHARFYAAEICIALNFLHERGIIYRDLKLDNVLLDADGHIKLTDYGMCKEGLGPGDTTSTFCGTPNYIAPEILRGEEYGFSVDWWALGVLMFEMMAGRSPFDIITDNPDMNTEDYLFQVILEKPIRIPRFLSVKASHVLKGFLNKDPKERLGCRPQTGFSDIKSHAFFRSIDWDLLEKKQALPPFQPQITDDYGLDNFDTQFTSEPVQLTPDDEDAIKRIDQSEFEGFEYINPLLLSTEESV
Description: as §1, §2, §3

protein kinase C alpha = protein kinase C alpha (Homo sapiens, UniProt P17252); test: PKC Enzyme assay, alpha isozyme; type: biochemical
Description: as §1, §2, §3

PKC isozymes = conditions: cited from earlier work
[1] = PKC gamma, 30 μM ATP, 30° C., 10 minutes, read-out: IC50 γ
[2] = PKC epsilon, 30 μM ATP, 30° C., 10 minutes, read-out: IC50 ε
[3] = PKC delta, 30 μM ATP, 30° C., 10 minutes, read-out: IC50 δ
[4] = PKC beta-1, 30 μM ATP, 30° C., 10 minutes, read-out: IC50 β1
[5] = PKC zeta, 30 μM ATP, 30° C., 10 minutes, read-out: IC50 ζ
[6] = PKC alpha, 30 μM ATP, 30° C., 10 minutes, read-out: IC50 α

| IC50 (protein kinase C gamma; [1]) [µM] | IC50 (protein kinase C epsilon; [2]) [µM] | IC50 (protein kinase C beta-2) [µM] | IC50 (protein kinase C eta) [µM] | IC50 (protein kinase C delta; [3]) [µM] | IC50 (protein kinase C beta-1; [4]) [µM] | IC50 (protein kinase C zeta; [5]) [µM] | IC50 (protein kinase C alpha; [6]) [µM] | SMILES | IC50 (protein kinase C gamma) [µM] | IC50 (protein kinase C epsilon) [µM] | IC50 (protein kinase C delta) [µM] | IC50 (protein kinase C beta-1) [µM] | IC50 (protein kinase C zeta) [µM] | IC50 (protein kinase C alpha) [µM] | isozyme selectivity (PKC isozymes; Martiny-Baron et al. (1993)) | isozyme selectivity (PKC isozymes; Toullec et al. (1991)) |
| --- | --- | --- | --- | --- | --- | --- | --- | --- | --- | --- | --- | --- | --- | --- | --- | --- |
| 24 | 91 | 0.042 | 3.6 | 7.4 | 0.18 | 75 | 4.5 | Cn1cc(C2=C(c3cn(CCOC4O[C@H](CO)[C@@H](O)[C@@H](O)[C@H]4N=[N+]=[N-])c4ccccc34)C(=O)NC2=O)c2ccccc21 (stereo partly drawn) [Example 60] |  |  |  |  |  |  |  |  |
| 0.28 | 0.8 | 0.005 | 0.04 | 0.16 | 0.005 | 50 | 0.16 | Cn1cc(C2=C(c3cn(C4CCOC4)c4ccccc34)C(=O)NC2=O)c2ccccc21 (stereo not drawn) [Example 64] |  |  |  |  |  |  |  |  |
| 4.3 | 6.6 | 0.23 | 1.7 | 3.5 | 0.41 | 51 | 3.2 | Cn1cc(C2=C(c3cn(CCCCOC4CC(O)C(CN)O4)c4ccccc34)C(=O)NC2=O)c2ccccc21 (stereo not drawn) [Example 53] |  |  |  |  |  |  |  |  |
| 3.2 | 2.4 | 0.039 | 1.3 | 0.93 | 0.069 | 49 | 1.6 | Cn1cc(C2=C(c3cn(CCCCOC4C[C@H](O)[C@@H](CO)O4)c4ccccc34)C(=O)NC2=O)c2ccccc21 (stereo partly drawn) [Example 56] |  |  |  |  |  |  |  |  |
| 4.4 | 0.6 | 0.025 | 1.1 | 0.41 | 0.036 | 46 | 0.32 | CC(=O)NC[C@H]1O[C@H](OCCn2cc(C3=C(c4cn(C)c5ccccc45)C(=O)NC3=O)c3ccccc32)C[C@@H]1O [Example 3] |  |  |  |  |  |  |  |  |
| 1.3 | 0.39 | 0.026 | 0.13 | 0.97 | 0.019 | 9.3 | 0.34 | CC(C)N1CCC(n2cc(C3=C(c4cn(C)c5ccccc45)C(=O)NC3=O)c3ccccc32)CC1 [Example 8, 3-[1-(1-i-Propyl-piperidin-4-yl)-1H-indol-3-yl]-4-(1-methyl-1H-indol-3-yl)-pyrrole-2,5-dione] |  |  |  |  |  |  |  |  |
| 0.5 | 0.05 | 0.01 | 0.04 | 0.4 | 0.02 | 5 | 0.2 | CN1CCC(n2cc(C3=C(c4c[nH]c5ccccc45)C(=O)NC3=O)c3ccccc32)CC1 [Example 51] |  |  |  |  |  |  |  |  |
|  |  |  |  |  |  |  |  | CN(C)CCCn1cc(C2=C(c3c[nH]c4ccccc34)C(=O)NC2=O)c2ccccc21 [3-[1-(3-dimethylaminopropyl)-indol-3-yl]-4-(1H-indol-3-yl)-1H-pyrrole-2,5-dione] |  |  |  |  |  |  | slight selectivity for isozymes, alpha and beta versus delta, epsilon, and zeta; also recorded: no differences in the selectivity between alpha and beta-1 isozymes | slight selectivity for the calcium dependent isozymes; also recorded: no isozyme selectivity between alpha, beta-1, beta-2, and gamma |
| 5 | 0.4 | 0.05 | 2 | 3 | 0.05 | > 100 | 1 | CCOC(=O)CN1CCC(n2cc(C3=C(c4cn(C)c5ccccc45)C(=O)NC3=O)c3ccccc32)CC1 [Example 38] |  |  |  |  |  |  |  |  |
| 4 | 3.6 | 0.049 | 0.14 | 1.6 | 0.13 | 50 | 1.7 | Cn1cc(C2=C(c3cn(CCOC4C[C@H](N)[C@@H](CO)O4)c4ccccc34)C(=O)NC2=O)c2ccccc21 (stereo partly drawn) [Example 63] |  |  |  |  |  |  |  |  |
| 9.2 | 10 | 0.6 | 5.6 | 8 | 0.7 | 40 | 39 | Cc1c(C2=C(c3c(C)n(CN(C)C)c4ccccc34)C(=O)NC2=O)c2ccccc2n1CCCN(C)C [Example 16] |  |  |  |  |  |  |  |  |
| 15 | 4.3 | 0.34 | 2.5 | 7.9 | 1.1 | 37 | 6.7 | Cn1cc(C2=C(c3cn(CCCCOC4CC(O)C(CN)O4)c4ccccc34)C(=O)NC2=O)c2ccccc21 (stereo not drawn) [Example 54] |  |  |  |  |  |  |  |  |
| 5 | 2 | 0.04 | 2 | 2 | 0.05 | > 100 | 2 | Cn1cc(C2=C(c3cn(C4CCN(c5ccccn5)CC4)c4ccccc34)C(=O)NC2=O)c2ccccc21 [Example 48] |  |  |  |  |  |  |  |  |
| 38 | 12 | 0.27 | 2.5 | 4.5 | 0.24 | 46 | 4.9 | Cn1cc(C2=C(c3cn(CCO[C@@H]4C[C@H](O)[C@@H](CN=[N+]=[N-])O4)c4ccccc34)C(=O)NC2=O)c2ccccc21 [Example 58] |  |  |  |  |  |  |  |  |
| 1 | 0.4 | 0.02 | 0.1 | 0.4 | 0.009 | 20 | 0.3 | CC(=O)N1CCC(n2cc(C3=C(c4cn(C)c5ccccc45)C(=O)NC3=O)c3ccccc32)CC1 [Example 37, 3-(1-(1-Acetyl-piperidin-4-yl]-indol-3-yl)-4-(1-methyl-indol-3-yl)-pyrrole-2,5-dione] |  |  |  |  |  |  |  |  |
| 0.6 | 0.5 | 0.02 | 0.1 | 0.5 | 0.03 | 3 | 0.3 | O=C1NC(=O)C(c2cn(C3CCNCC3)c3ccccc23)=C1c1c[nH]c2ccccc12 [Example 50] |  |  |  |  |  |  |  |  |
| 1.25 | 0.9 | 0.086 | 0.52 | 1 | 0.081 | 8 | 1.21 | Cn1cc(C2=C(c3c[nH]c4ccccc34)C(=O)NC2=O)c2ccccc21 [Example 12] |  |  |  |  |  |  |  |  |

| SMILES | IC50 (protein kinase C gamma; [1]) [µM] | IC50 (protein kinase C epsilon; [2]) [µM] | IC50 (protein kinase C beta-2) [µM] | IC50 (protein kinase C eta) [µM] | IC50 (protein kinase C delta; [3]) [µM] | IC50 (protein kinase C beta-1; [4]) [µM] | IC50 (protein kinase C zeta; [5]) [µM] | IC50 (protein kinase C alpha; [6]) [µM] | IC50 (protein kinase C gamma) [µM] | IC50 (protein kinase C epsilon) [µM] | IC50 (protein kinase C delta) [µM] | IC50 (protein kinase C beta-1) [µM] | IC50 (protein kinase C zeta) [µM] | IC50 (protein kinase C alpha) [µM] | isozyme selectivity (PKC isozymes; Martiny-Baron et al. (1993)) | isozyme selectivity (PKC isozymes; Toullec et al. (1991)) |
| --- | --- | --- | --- | --- | --- | --- | --- | --- | --- | --- | --- | --- | --- | --- | --- | --- |
| Cn1cc(C2=C(c3cn(C4CCN(Cc5ccccc5)CC4)c4ccccc34)C(=O)NC2=O)c2ccccc21 [Example 47] |  |  | 0.05 | 0.5 |  |  |  |  | 4 | 3 | 2 | 0.1 | 52 | 1 |  |  |
